From patent US12029776B2, “Composition for treating cancer and use and medicament thereof” (NEWISH TECHNOLOGY (BEIJING) CO., LTD., priority 2020, dated 2024)
Counter-ions that a name gives are not always drawn.

Assays:
[1] = tested on: liver cancer cell line; test: VEGFR2 inhibitors in combination with the SGLT1 inhibitor on the liver cancer cell line (Example 2); assay type: cell-based; settings: combined with SGLT1 inhibitor sotagliflozin, FIG. 11-1 to 11-30
Experimental: Dimethyl sulfoxide (DMSO) can dissolve formazan in cells, and its light absorption value measured at 570 nm wavelength with an enzyme-linked immunodetector can indirectly reflect the number of living cells. Cell growth was determined by 3-(4,5-dimethylthiazol-2-yl)-2,5-diphenyltetrazolium bromide (MTT) assay in a 96-well plate. Specifically, the cells were digested and counted, and then resuspended into a system containing 5000 cells per 200 μL of culture medium and seeded in each well of a 96-well plate. The next day, the medium was replaced with a medium containing different concentrations of sotagliflozin, apatinib, lenvatinib, and the composition of them. After 48 or 72 hours of incubation with the drugs, 20 μL of MTT reagent was added to each well and incubated for 2 hours. After discarding the medium, the formazan deposit in the cells was dissolved in 100 μL of DMSO. The absorbance was measured at 570 nm by a microplate reader. Samples were used in quadruplicate in each group.

[2] = tested on: transplanted tumor of the liver cancer cell line Hep3B; test: Efficacy on the transplanted tumor in nude mice; settings: FIG. 10
Experimental: Hep3B cells were cultured with 10% serum DMEM medium and were digested and counted after they grew into the logarithmic phase. […] Therefore, the present invention adopted a dose of 5*10e6 cells per nude mouse, and administration was performed in groups after the tumors grew into an average volume of 100 mm^3 in about 21 days. The administration was divided into a solvent control group, an apatinib 50 mg/kg oral administration group, a sotagliflozin 20 mg/kg intraperitoneal injection group, and a combination group of simultaneous apatinib 50 mg/kg oral administration and sotagliflozin 20 mg/kg intraperitoneal injection. The administration cycle was once every other day, and the tumor volumes were measured every Tuesday and Friday and calculated according to the formula V=a*b^2/2 (a is the measured long diameter of the tumor, b is the measured short diameter of the tumor). A graph was mapped using Graphpad prism 5 and the measurement results were analyzed statistically.

Compound | tumor suppressive effect in combination with the SGLT1 inhibitor compared with single agent [1] | sensitisation of the transplanted tumor to the growth inhibitory effect of apatinib [2]
Cc1cc(Nc2cc(N3CCN(C)CC3)nc(/C=C/c3ccccc3)n2)n[nH]1.O=C(O)C(O)C(O)C(=O)O [ENMD-2076 L-(+)-tartaric acid] | better tumor suppressive effect than as a single agent | 
Cc1cc(Nc2cc(N3CCN(C)CC3)nc(/C=C/c3ccccc3)n2)n[nH]1 [ENMD-2076] | better tumor suppressive effect than as a single agent | 
COc1cc2c(Oc3ccc4[nH]c(C)cc4c3F)ccnc2cc1OCC1(N)CC1 [anlotinib (AL3818) dihydrochloride] | better tumor suppressive effect than as a single agent | 
Cc1cc2c(F)c(Oc3ncnn4cc(OC[C@@H](C)OC(=O)[C@H](C)N)c(C)c34)ccc2[nH]1 [brivanib alaninate] | better tumor suppressive effect than as a single agent | 
Cc1cc2c(F)c(Oc3ncnn4cc(OC[C@@H](C)O)c(C)c34)ccc2[nH]1 [brivanib] | better tumor suppressive effect than as a single agent | 
COc1cc2nccc(Oc3ccc(NC(=O)C4(C(=O)Nc5ccc(F)cc5)CC4)cc3)c2cc1OC [cabozantinib malate] | better tumor suppressive effect than as a single agent | 
COc1cc2c(Oc3ccc4[nH]c(C)cc4c3F)ncnc2cc1OCCCN1CCCC1 [cediranib] | better tumor suppressive effect than as a single agent | 
CNC(=O)c1c(C)oc2cc(Oc3ncnc4cc(OC)c(OC)cc34)ccc12 [fruquintinib] | better tumor suppressive effect than as a single agent | 
COc1cc2nccc(Oc3ccc(NC(=O)NC4CC4)c(Cl)c3)c2cc1C(N)=O [lenvatinib mesylate] | better tumor suppressive effect than as a single agent | 
CCS(=O)(=O)O.COC(=O)c1ccc2c(c1)NC(=O)/C2=C(\Nc1ccc(N(C)C(=O)CN2CCN(C)CC2)cc1)c1ccccc1 [nintedanib ethanesulfonate salt] | better tumor suppressive effect than as a single agent | 
COC(=O)c1ccc2c(c1)NC(=O)/C2=C(\Nc1ccc(N(C)C(=O)CN2CCN(C)CC2)cc1)c1ccccc1 [nintedanib] | better tumor suppressive effect than as a single agent | 
CNC(=O)c1cc(Oc2ccc(NC(=O)Nc3ccc(Cl)c(C(F)(F)F)c3)c(F)c2)ccn1 [regorafenib] | better tumor suppressive effect than as a single agent | 
COCCNCc1ccc(-c2cc3nccc(Oc4ccc(NC(=O)C5(C(=O)Nc6ccc(F)cc6)CC5)cc4F)c3s2)nc1 [sitravatinib] | better tumor suppressive effect than as a single agent | 
CCOc1ccc(Cc2cc([C@@H]3O[C@H](SC)[C@@H](O)[C@H](O)[C@H]3O)ccc2Cl)cc1 [sotagliflozin] |  | sensitive to the growth inhibitory effect of apatinib
O=C1c2c(O)cc(O)cc2O[C@H](c2ccc(O)c(O)c2)[C@H]1O [taxifolin] | better tumor suppressive effect than as a single agent | 
CNC(=O)c1cc(COc2nnc(Nc3ccc(Cl)cc3)c3ccoc23)ccn1 [telatinib] | better tumor suppressive effect than as a single agent | 
cediranib maleate | better tumor suppressive effect than as a single agent | 
vitamin E | better tumor suppressive effect than as a single agent | 
